What is called Ki is a measure of affinity in units of concentration, obtained from inhibition or displacement. The low end stands for tighter binding, the high end for weaker binding.

The results in this text go back to patent publication US11840528B2 (Hoffmann-La Roche Inc., priority 2018, dated 2023).

The target of experiment [1] is T1, h-GABA-A α5β3γ2 (Homo sapiens, UniProt P18507+P31644). Put plainly: Two-electrode voltage clamp electrophysiology in Xenopus laevis oocytes expressing GABAA receptors, modulation of GABA EC20 current. The class given is cell-based. Also noted: host or cells: Xenopus laevis oocytes micro-injected with RNA transcripts of the subunits. To be noted: Table 1; for Efficacy (GABA) %: % modulation of GABA EC20 = 100*(Fold increase-1); for Fold increase h-GABA-A α5β3γ2 oocyte: test compound at approx. 30 fold its Ki, GABA at EC20. An outline of the steps: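 Human α5β3γ2 GABAA receptors were expressed in Xenopus oocytes by RNA injection, with γ2 RNA 5–10-fold higher, and recorded 3–5 days later by two-electrode voltage clamp at −80 mV at room temperature. The test compound, at about 30× its Ki, was co-applied during a second GABA EC20 pulse. Efficacy is the extremum of the point-by-point ratio to the first response, expressed as 100*(Fold increase−1).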
A general note: Two-electrode voltage clamp holds a large cell at a set potential and records current.

The target of experiment [2] is T1, h-GABA-A α5β3γ2. Put plainly: [3H]flumazenil competition binding assay, membranes of HEK293 cells expressing GABAA receptors. To be noted: displacement of [3H]-Flumazenil 0.5 nM, HEK293 cells expressing human receptors, mean of two determinations; Table 1. The gist of the method:
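Membranes from HEK293 cells transiently expressing human α5β3γ2 GABAA receptors, in Krebs-tris buffer pH 7.5, competed against [3H]flumazenil for 1 hour at 4° C to equilibrium. Bound radioactivity collected on GF/C filters and counted by liquid scintillation; Ki values are means of two determinations.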
(Loss of bound radioactivity is the signal in a displacement assay; it reports binding, not function.)

`Cc1onc(-c2ccc(C(F)(F)F)nn2)c1Cn1ncc(N2CC3(CCCCO3)C2)cc1=O` [Example 335, 2-((5-methyl-3-(6-(trifluoromethyl)pyridazin-3-yl)isoxazol-4-yl)methyl)-5-(5-oxa-2-azaspiro[3.5]nonan-2-yl)pyridazin-3(2H)-one]: at h-GABA-A α5β3γ2 [1], the “Efficacy (GABA) %” value was determined as 90% and the “Fold increase h-GABA-A α5β3γ2 oocyte” value came out at 1.9. Further, the Ki at h-GABA-A α5β3γ2 [2] is 9.2 nM.

Regarding `Cc1ccc(-c2noc(C)c2Cn2ncc(-c3ccc(N(C)C)nc3)cc2=O)cn1` [Example 116, 5-[6-(dimethylamino)-3-pyridyl]-2-((5-methyl-3-(6-methyl-3-pyridyl)isoxazol-4-yl)methyl)pyridazin-3-one], at h-GABA-A α5β3γ2 [1], the “Efficacy (GABA) %” value turned out to be 84% and the “Fold increase h-GABA-A α5β3γ2 oocyte” value was found to be 1.84. On h-GABA-A α5β3γ2 [2], this compound registered a Ki of 30.8 nM.

For `Cc1ccc(-c2noc(C)c2Cn2ncc(N3CC(Oc4ccc(F)cc4)C3)cc2=O)cn1` [Example 123, 5-[3-(4-fluorophenoxy)azetidin-1-yl]-2-[[5-methyl-3-(6-methyl-3-pyridyl)isoxazol-4-yl]methyl]pyridazin-3-one], at h-GABA-A α5β3γ2 [1], the “Efficacy (GABA) %” value amounted to 152% and the “Fold increase h-GABA-A α5β3γ2 oocyte” value turned out to be 2.52. The Ki at h-GABA-A α5β3γ2 [2] is 18.6 nM.

With `CNc1cc(-c2cnn(Cc3c(-c4ccc(C)nc4)noc3C)c(=O)c2)ccn1` [Example 202, 2-((5-methyl-3-(6-methylpyridin-3-yl)isoxazol-4-yl)methyl)-5-(2-(methylamino)pyridin-4-yl)pyridazin-3(2H)-one], on h-GABA-A α5β3γ2 [1], the “Efficacy (GABA) %” value was determined as 96% and the “Fold increase h-GABA-A α5β3γ2 oocyte” value was 1.96. On h-GABA-A α5β3γ2 [2], this compound came in with a Ki of 4.2 nM.

`Cc1ccc(-c2noc(CF)c2Cn2ncc(N3C[C@@H](C)O[C@@H](C)C3)cc2=O)cn1` [Example 243, 5-((2S,6R)-2,6-dimethylmorpholin-4-yl)-2-((5-(fluoromethyl)-3-(6-methylpyridin-3-yl)-1,2-oxazol-4-yl)methyl)pyridazin-3-one]: at h-GABA-A α5β3γ2 [1], the “Efficacy (GABA) %” value is listed as 173% and the “Fold increase h-GABA-A α5β3γ2 oocyte” value came to 2.73. For the same compound, the Ki at h-GABA-A α5β3γ2 [2] was found to be 4.6 nM.

Consider `COC1CN(c2cnn(Cc3c(-c4ncc(C(F)(F)F)cn4)noc3C)c(=O)c2)C1` [Example 229, 5-(3-methoxyazetidin-1-yl)-2-((5-methyl-3-(5-(trifluoromethyl)pyrimidin-2-yl)isoxazol-4-yl)methyl)pyridazin-3(2H)-one], for which, at h-GABA-A α5β3γ2 [1], the “Efficacy (GABA) %” value came out at 81% and the “Fold increase h-GABA-A α5β3γ2 oocyte” value came out at 1.81. Besides, the Ki at h-GABA-A α5β3γ2 [2] turned out to be 10 nM.

With `Cc1ccc(-c2noc(C)c2Cn2ncc(N3CC(Oc4ccncc4)C3)cc2=O)cn1` [Example 129, 2-[[5-methyl-3-(6-methyl-3-pyridyl)isoxazol-4-yl]methyl]-5-[3-(4-pyridyloxy)azetidin-1-yl]pyridazin-3-one], at h-GABA-A α5β3γ2 [1], the “Efficacy (GABA) %” value is recorded as 198% and the “Fold increase h-GABA-A α5β3γ2 oocyte” value is listed as 2.98. The compound also yielded a Ki on h-GABA-A α5β3γ2 [2] of 4.5 nM.

With `Cc1ccc(-c2noc(C)c2Cn2ncc(N3C[C@H]4CC[C@@H](C3)O4)cc2=O)cn1` [Example 28, 2-[[5-methyl-3-(6-methyl-3-pyridyl)isoxazol-4-yl]methyl]-5-[(1R,5S)-8-oxa-3-azabicyclo[3.2.1]octan-3-yl]pyridazin-3-one], at h-GABA-A α5β3γ2 [1], the “Efficacy (GABA) %” value is 136% and the “Fold increase h-GABA-A α5β3γ2 oocyte” value amounted to 2.36. Besides, at h-GABA-A α5β3γ2 [2], the Ki was determined as 0.6 nM.

As to `Cc1ccc(-c2noc(C)c2Cn2ncc(N3CC(Oc4ccnc(Cl)c4)C3)cc2=O)cn1` [Example 147, 5-[3-[(2-chloro-4-pyridyl)oxy]azetidin-1-yl]-2-[[5-methyl-3-(6-methyl-3-pyridyl)isoxazol-4-yl]methyl]pyridazin-3-one], on h-GABA-A α5β3γ2 [1], the “Efficacy (GABA) %” value is recorded as 170% and the “Fold increase h-GABA-A α5β3γ2 oocyte” value is 2.7. The compound also registered a Ki at h-GABA-A α5β3γ2 [2] of 12 nM.
